Earlier results in patent US20040102462A1, “2-(2-amino-1,6-dihydro-6-oxo-purin-9-yl) methoxy-1,3-propanediol derivative” (priority 1994, published 2004).

Settings: rats; % of the acyclovir dosed

SMILES: Nc1nc2c(ncn2COCCO)c(=O)[nH]1 [acyclovir, 2-(2-amino-1,6-dihydro-6-oxo-1,6-dihydro-purin-9-yl)methoxy-ethanol]
- acyclovir recovered in the urinary recovery assay: 19%
